Earlier results, collected in paper PMC3736096 (Nature, 2013).

Compound | blood-brain barrier penetration
COc1ccc(S(=O)(=O)Nc2nc(-c3cccc([N+](=O)[O-])c3)c(CN3CCCCC3)s2)cc1OC [JM6] | do not appreciably penetrate the blood-brain barrier
COc1ccc(S(=O)(=O)Nc2nc(-c3cccc([N+](=O)[O-])c3)cs2)cc1OC [Ro 61-8048, 3,4-dimethoxy-[-N-4-(nitrophenyl)thiazol-2yl]-benzenesulfonamide] | do not appreciably penetrate the blood-brain barrier
